Source: BigSolDB 2.1

COc1cc(CNC(=O)CCCCCCC(C)C)ccc1O
Details	solubility (mole fraction)
in acetone, 299.49 K	0.193
in acetone, 300.47 K	0.203
in acetone, 302.34 K	0.224
in acetone, 303.46 K	0.236
in acetone, 304.58 K	0.249
in acetone, 305.69 K	0.256
in acetone, 306.75 K	0.269
in acetone, 308.78 K	0.287
in ethanol, 301.79 K	0.184
in ethanol, 303.35 K	0.196
in ethanol, 305.54 K	0.213
in ethanol, 307.86 K	0.233
in ethanol, 309.95 K	0.249
in ethanol, 311.23 K	0.258
in ethanol, 312.98 K	0.268
in ethanol, 314.44 K	0.278
in ethyl acetate, 302.07 K	0.307
in ethyl acetate, 304.12 K	0.33
in ethyl acetate, 305.29 K	0.342
in ethyl acetate, 306.48 K	0.354
in ethyl acetate, 307.69 K	0.369
in ethyl acetate, 308.81 K	0.379
in ethyl acetate, 310.65 K	0.397
in ethyl acetate, 312.79 K	0.415
in n-heptane, 298.43 K	0.000229
in n-heptane, 300.59 K	0.00026
in n-heptane, 302.85 K	0.000299
in n-heptane, 304.03 K	0.000318
in n-heptane, 305.69 K	0.000349
in n-heptane, 307.08 K	0.000378
in n-heptane, 308.84 K	0.000422
in n-heptane, 309.97 K	0.000451
in n-heptane, 311.04 K	0.00048
in n-heptane, 313.41 K	0.000549
in n-hexane, 296.14 K	0.000136
in n-hexane, 298.73 K	0.000159
in n-hexane, 300.87 K	0.000181
in n-hexane, 301.98 K	0.000196
in n-hexane, 303.09 K	0.00021
in n-hexane, 305.04 K	0.000238
in n-hexane, 307.13 K	0.000269
in n-hexane, 309.25 K	0.000309
in n-hexane, 310.68 K	0.00034
in n-hexane, 312.02 K	0.000374
in n-pentane, 297.26 K	0.000115
in n-pentane, 298.19 K	0.000122
in n-pentane, 299.27 K	0.00013
in n-pentane, 300.43 K	0.000142
in n-pentane, 301.54 K	0.000152
in water, 324.67 K	4.81e-05
in water, 325.03 K	5.24e-05
in water, 325.66 K	6.14e-05
in water, 326.29 K	7.19e-05
in water, 326.81 K	8.17e-05
in water, 327.37 K	9.26e-05
